Test results as given in ChEMBL document CHEMBL1123800 (J Med Chem, 1987).

Key:
[1] = species: Mustela putorius furo; assay: Inotropic activity as dose required to cause 20% positive or negative change in contractile force of papillary muscle from ferret (F).; format: functional, Muscle tissue
[2] = target: cAMP phosphodiesterase (Canis familiaris); assay: Inhibition of canine cardiac cAMP phosphodiesterase (cAMP-PDE)
[3] = system: Canis familiaris; assay: Equieffective dose for mean arterial pressure in anesthetized dogs for a maximum dose of 1.0 mg/kg. Values Ranges From :0.2,0.4; format: functional, Canis lupus familiaris, Artery
[4] = system: Canis familiaris; assay: Equieffective dose for contractility in anesthetized dogs for a maximum dose of 1.0 mg/kg. Values Ranges From :0.02-0.05; format: functional, Canis lupus familiaris
[5] = system: Canis familiaris; assay: Equieffective dose for heart rate in anesthetized dogs for a maximum dose of 1.0 mg/kg. Values Ranges From :0.01-0.8; format: functional, Canis lupus familiaris
[6] = system: Canis familiaris; assay: Equieffective dose for heart rate in anesthetized dogs for a maximum dose of 3.0 mg/kg. Values Ranges From:0.7-2; format: functional, Canis lupus familiaris
[7] = system: Canis familiaris; assay: Equieffective dose for contractility in anesthetized dogs for a maximum dose of 3.0 mg/kg. Values Ranges From:0.1-0.4; format: functional, Canis lupus familiaris
[8] = system: Canis familiaris; assay: Equieffective dose for mean arterial pressure in anesthetized dogs for a maximum dose of 3.0 mg/kg. Values Ranges From:0.1-1.4; format: functional, Canis lupus familiaris, Artery
[9] = species: Mustela putorius furo; assay: Inotropic activity as dose required to cause 20% positive or negative change in contractile force of papillary muscle from ferret (F); format: functional; details: Muscle tissue
[10] = system: Canis familiaris; assay: Equieffective dose for mean arterial pressure in anesthetized dogs for a maximum dose of 1.0 mg/kg. Values Ranges From :0.04-1.0; format: functional, Canis lupus familiaris, Artery
[11] = system: Canis familiaris; assay: Equieffective dose for contractility in anesthetized dogs for a maximum dose of 1.0 mg/kg. Values Ranges From :0.03-0.07; format: functional, Canis lupus familiaris
[12] = system: Canis familiaris; assay: Equieffective dose for heart rate in anesthetized dogs for a maximum dose of 1.0 mg/kg. Values Ranges From :0.04-0.3; format: functional, Canis lupus familiaris
[13] = system: Canis familiaris; assay: Equieffective dose for mean arterial pressure in anesthetized dogs for a maximum dose of 0.3 mg/kg. 0.07-0.3; format: functional, Canis lupus familiaris, Artery
[14] = system: Canis familiaris; assay: Equieffective dose for contractility in anesthetized dogs for a maximum dose of 0.3 mg/kg. Values Ranges From :0.01-0.2; format: functional, Canis lupus familiaris
[15] = system: Canis familiaris; assay: Equieffective dose for heart rate in anesthetized dogs for a maximum dose of 0.3 mg/kg. Values Ranges From :0.02-0.2; format: functional, Canis lupus familiaris
[16] = system: Canis familiaris; assay: Equieffective dose for mean arterial pressure in anesthetized dogs for a maximum dose of 0.1 mg/kg. Values Ranges From :0.02-0.04; format: functional, Canis lupus familiaris, Artery
[17] = system: Canis familiaris; assay: Equieffective dose for contractility in anesthetized dogs for a maximum dose of 0.1 mg/kg. Values Ranges From :0.005-0.07; format: functional, Canis lupus familiaris
[18] = system: Canis familiaris; assay: Equieffective dose for heart rate in anesthetized dogs for a maximum dose of 0.1 mg/kg. Values Ranges From :0.009-0.02; format: functional, Canis lupus familiaris
[19] = system: Canis familiaris; assay: Equieffective dose for heart rate in anesthetized dogs for a maximum dose of 3.0 mg/kg. Values ranges from :0.05-0.2; format: functional, Canis lupus familiaris
[20] = system: Canis familiaris; assay: Equieffective dose for contractility in anesthetized dogs for a maximum dose of 3.0 mg/kg.; format: functional, Canis lupus familiaris
[21] = system: Canis familiaris; assay: Equieffective dose for mean arterial pressure in anesthetized dogs for a maximum dose of 3.0 mg/kg. Values Ranges From: 0.2-2.4; format: functional, Canis lupus familiaris, Artery
[22] = system: Canis familiaris; assay: Equieffective dose for heart rate in anesthetized dogs for a maximum dose of 3.0 mg/kg. Values Ranges From :0.3-1.0; format: functional, Canis lupus familiaris
[23] = system: Canis familiaris; assay: Equieffective dose for contractility in anesthetized dogs for a maximum dose of 3.0 mg/kg. Values Ranges From :0.2-1.0; format: functional, Canis lupus familiaris
[24] = system: Canis familiaris; assay: Equieffective dose for mean arterial pressure in anesthetized dogs for a maximum dose of 3.0 mg/kg. Values Ranges From :2.0; format: functional, Canis lupus familiaris, Artery
[25] = system: Canis familiaris; assay: Equieffective dose for heart rate in anesthetized dogs for a maximum dose of 3.0 mg/kg. Values Ranges From :0.08-0.6; format: functional, Canis lupus familiaris
[26] = system: Canis familiaris; assay: Equieffective dose for mean arterial pressure in anesthetized dogs for a maximum dose of 3.0 mg/kg. Values Ranges From :0.6-1.5; format: functional, Canis lupus familiaris, Artery
[27] = system: Canis familiaris; assay: Equieffective dose for contractility in anesthetized dogs for a maximum dose of 3.0 mg/kg. Values Ranges From :0.05-0.9; format: functional, Canis lupus familiaris

Row | IC50 [2] [µM] | SMILES | C20 [1] [µM] | further results
1 | 2 | CCc1[nH]c(O)nc1C(=O)c1ccc(-n2ccnc2C)c(C)c1 | 0.2 | –
2 | – | CCc1[nH]c(O)nc1C(=O)c1ccc(-n2ccnc2C)cc1 | 0.7 | Mean arterial blood pressure [3]: 0.3; Contractility (LV dP/dt) [4]: 0.03; Heart rate [5]: 0.3
3 | 27 | Cc1[nH]c(O)nc1C(=O)c1ccc(-c2ncc[nH]2)cc1 | 1.1 | –
4 | 20 | Cc1[nH]c(O)nc1C(=O)c1ccc(-n2cnc3ccccc32)cc1 | 11 | –
5 | 30 | Cc1[nH]c(O)nc1C(=O)c1ccc(-n2ccnc2C)cc1 | 1 | Heart rate [6]: 0.8; Contractility (LV dP/dt) [7]: 0.3; Mean arterial blood pressure [8]: 0.6
6 | 29 | CCCc1nccn1-c1ccc(C(=O)c2[nH]c(O)nc2CC)cc1 | 1 | –
7 | 23 | CCc1[nH]c(O)nc1C(=O)c1cccc(-n2ccnc2)c1 | 0.1 | –
8 | 40 | CCc1[nH]c(O)nc1C(=O)c1ccc(-n2ccnc2C(C)C)cc1 | 16.3 | –
9 | 7 | CCc1[nH]c(O)nc1C(=O)c1ccc(-n2ccnc2CCC(C)C)cc1 | 21.7 | –
10 | 2 | CCc1[nH]c(O)nc1C(=O)c1ccc(-n2ccnc2)c(C)c1 | 0.05 | –
11 | > 100 | Cc1nc(O)[nH]c1C(=O)c1ccc(-n2c(C)nc(C)c2C)cc1 | – | C20 [9]: Not reached
12 | 4 | Cc1nc(=O)c(C#N)c(NCc2cccnc2)[nH]1 [PELRINONE] | 0.23 | Mean arterial blood pressure [10]: 0.4; Contractility (LV dP/dt) [11]: 0.04; Heart rate [12]: 0.1
13 | 19 | CCc1[nH]c(O)nc1C(=O)c1ccc(-n2cc(C)nc2CC)cc1 | 21 | –
14 | – | Cc1[nH]c(=O)c(C#N)cc1-c1ccncc1 [MILRINONE] | 0.57 | Mean arterial blood pressure [13]: 0.2; Contractility (LV dP/dt) [14]: 0.09; Heart rate [15]: 0.06
15 | 2 | CCc1[nH]c(O)nc1C(=O)c1ccc(-n2ccnc2)cc1 | 0.063 | Mean arterial blood pressure [16]: 0.03; Contractility (LV dP/dt) [17]: 0.02; Heart rate [18]: 0.016
16 | 15 | CCc1[nH]c(O)nc1C(=O)c1ccc(-c2ncc[nH]2)cc1 | 0.4 | –
17 | > 100 | CCc1[nH]c(O)nc1C(=O)c1ccc(-n2cc[n+](C)c2C)cc1 | – | C20 [9]: Not reached
18 | 6 | Cc1[nH]c(O)nc1C(=O)c1ccc(-n2ccnc2)cc1 | 0.1 | Heart rate [19]: 0.1; Contractility (LV dP/dt) [20]: <=0.1; Mean arterial blood pressure [21]: 0.9
19 | – | CSc1ccc(C(=O)c2[nH]c(=O)[nH]c2C)cc1 [ENOXIMONE] | 3.18 | Heart rate [22]: 0.6; Contractility (LV dP/dt) [23]: 0.7; Mean arterial blood pressure [24]: 2
20 | 65 | Cc1cn(-c2ccc(C(=O)c3[nH]c(O)nc3C)cc2)cn1 | 11 | –
21 | 4 | CCc1[nH]c(O)nc1C(=O)c1ccc(-n2ccnc2)cc1C | 0.2 | –
22 | 49 | Cc1[nH]c(O)nc1C(=O)c1ccc(-n2ccnc2CO)cc1 | 0.4 | –
23 | 73 | CCc1[nH]c(O)nc1C(=O)c1ccc(-n2ccnc2C)cc1C | 1.3 | –
24 | 25 | CCc1[nH]c(O)nc1C(=O)c1ccc(-n2ccnc2CC)cc1 | 0.1 | –
25 | – | O=C1CCC(c2ccc(-n3ccnc3)cc2)=NN1 [IMAZODAN] | 0.3 | Heart rate [25]: 0.3; Mean arterial blood pressure [26]: 1; Contractility (LV dP/dt) [27]: 0.3
26 | 30 | CCc1[nH]c(O)nc1C(=O)c1ccc(Cn2ccnc2)cc1 | 4 | –
